Experimental data as given in US20200069775A1, “BRAIN OSTEOCALCIN RECEPTOR AND COGNITIVE DISORDERS” (The Trustees of Columbia University in the City of New York, priority 2017, published 2020).

Experiments:
[1] = test system: Osteocalcin−/− embryos and adult offspring of Osteocalcin−/− mothers; assay: Osteocalcin injections in pregnant Osteocalcin−/− mothers, analysis of offspring; format: in vivo, mouse
Experimental: Osteocalcin−/−, Gprc6a−/−, Osteocalcin-mCherry, and Osteocalcin foxed mice have been previously described (Ducy et al., 1996, Nature 382:448-452; Oury et al., 2011, Cell 144:796-809). Mouse genotypes were determined by PCR. For all experiments, controls were littermate female WT, Cre-expressing, or flox/flox. All mice were maintained on a pure 129-Sv genetic background except for the inducible deletion Osteocalcin model (mix background: 25% C57/BL6 and 75% 129sv). For inducible gene deletion mice, tamoxifen was prepared in corn oil and injected intraperitoneally (IP) (1 mg/20g of body weight) over one week. For osteocalcin delivery to pregnant mice, IP injections (240 ng/day) were performed as soon as a plug was present daily until delivery (E0.5-E18.5). For osteocalcin or leptin infusion in adult Osteocalcin−/− or ob/ob mice, pumps (Alzet micro-osmotic pump, Model 1002) delivering osteocalcin (300 ng/hr), leptin (50 ng/hr), or vehicle were surgically installed subcutaneously in the backs of 3-month old mice. For the postnatal rescue of cognitive functions in Osteocalcin−/− mice, osteocalcin (10 ng/hour) or vehicle were delivered intrasubventricularly (icv) as previously described (Ducy et al., 2000, Cell 100:197-207). Leptin and osteocalcin content in sera and tissues were determined by ELISA.
Cresyl violet staining to visualize brain morphology was carried out by incubating 20 μm cryosections defatted with 1:1 chloroform:ethanol in cresyl violet acetate (1 g/L) overnight. The stain was differentiated using ethanol and xylene and mounted using DPX mounting medium for histology (Sigma).
To assess apoptosis in WT and Osteocalcin−/− brains, 20 μm cryostat sections were processed using theAPOPTAG® Fluorescein Direct In Situ Apoptosis Detection Kit (Millipore) according to manufacturer's protocol. Images were obtained using Leica DM 4000B, and Image J was used to quantify cell number and intensity of staining.
For western blotting, frozen hippocampi from E18.5 embryos were lysed and homogenized in 250 μl tissue lysis buffer (25 mM Tris HCl 7.5; 100 mM NaF; 10 mM Na4P2O7; 10 mmM EDTA; 1% NP 40). Samples were pooled together in threes by genotype to reduce variability. Proteins were transferred to nitrocellulose membranes and blocked with TBST-5% milk prior to overnight incubation with primary antibody in TBST-5% BSA. HRP-coupled secondary antibodies and ECL were used to visualize the signal.
To further evaluate the importance of maternal osteocalcin for the acquisition of spatial learning and memory in adult offspring, pregnant Osteocalcin^−/− mothers from E0.5 to E18.5 were treated with injections, once a day, of osteocalcin (240 ng/day). Osteocalcin was never injected in these females or their pups after delivery. […] Likewise, the number of apoptotic cells was reduced and the number of NeuN positive cells was increased compared to Osteocalcin^−/− embryos originating from Osteocalcin^−/− mothers that were not injected (FIG. 7I-J).

[2] = test system: cAMP production in hippocampal neurons; assay: cAMP accumulation in primary hippocampal neurons; format: cell-based, mouse; conditions: cultured hippocampal neurons
Experimental: Hippocampal neurons were isolated from mouse embryos (embryonic day 16.5). After dissection, hippocampi were digested in Tryspin 0.05% and EDTA 0.02% for 15 minutes at 37° C. After 3 wash in DMEM (high glucose and sodium pyruvate) supplemented with 10% of fetal bovine serum, 100 U/mL Penicillin-Streptomycin and 1× GlutaMAX, cells were dissociated by pipetting up and down and then plated. After the culture was established, medium was changed 2 times per week with Neurobasal medium supplemented with B-27 supplement and 1× GlutaMAX. Experiments were performed on cells after 15 days of culture (DIV 15).
For Western blotting, frozen hippocampi from adult mice were lysed and homogenized in 250 µl tissue lysis buffer (25 mM Tris HCl 7.5; 100 mM NaF; 10 mM Na4P2O7; 10 mmM EDTA; 1% NP 40). Proteins were transferred to nitrocellulose membranes, and blocked with TBST-5% BSA for 1 hour. […] Western blot bands were quantified using ImageJ software. cAMP accumulation was measured in primary hippocampal neurons by using cAMP Parameter Assay Kit (R&D systems) and performed in primary hippocampal neurons (DIV15) following manufacturer instructions. For IP1 accumulation was determined in primary hippocampal neurons (DIV15) by using IP-One ELISA assay kit (Cisbio) following manufacturer instructions. […]

[3] = test system: CREB phosphorylation in the hippocampus; assay: Stereotactic injection into hippocampus, pCREB and PKA immunofluorescence; format: in vivo, mouse; conditions: 16 h post injection
Excerpt: The resulting effects on animal behavior of direct recombinant uncarboxylated osteocalcin delivery raise the question of the molecular mechanism of action of osteocalcin in the brain. Given that osteocalcin acts through a G-protein coupled receptor pathway in other tissues, e.g., pancreas and testis, the phosphorylated CREB levels in the hippocampi of Ocn−/− and WT animals was checked. […] The hippocampus is essential for optimal spatial learning and memory in rodents. It was then asked whether the acute stereotactic injection of 10 ng of recombinant uncarboxylated osteocalcin directly into the hippocampus of WT animals would affect pCREB levels.

[4] = Osteocalcin−/− embryos, injected vs not injected Osteocalcin−/− mothers
[5] = mothers injected 240 ng/day once a day E0.5 to E18.5

Substance: osteocalcin: Recombinant osteocalcin bacterially produced, cleaved from the GST subunit; completely undercarboxylated at all three sites; full-length mouse osteocalcin (YLGASVPSPDPLEPTREQCELNPACDELSDQYGLKTAYKRIYGITI)
- Caspase-3 cleaved protein level in the hippocampus (Western blot) ([1]; Osteocalcin−/− E18.5 embryos, injected vs not injected mothers): decrease in Caspase-3 cleaved protein level
- number of NeuN positive cells [1, 4]: increased
- number of apoptotic cells [1, 4]: reduced
- number of apoptotic cells ([1]; Osteocalcin−/− embryos, injected vs not injected Osteocalcin−/− mothers, listed as Uncarboxylated osteocalcin): prevent this neuronal apoptosis
- thickness defect in the CA3 and CA4 regions of the hippocampus ([1]; adult Osteocalcin−/− originating from Osteocalcin−/− mothers): rescue of the thickness defect
- cerebral ventricle enlargement (cresyl violet) ([1]; brains of E18.5 Osteocalcin−/− embryos, injected mothers): rescue of the cerebral ventricle enlargement
- anxiety or depression phenotypes of Osteocalcin−/− offspring [1, 5]: did not have any beneficial effect
- deficit in learning and memory of Osteocalcin−/− offspring [1, 5]: rescued over two third of their deficit
- cAMP production [2]: did not affect cAMP production
- pCREB staining ([3]; 10 ng into hippocampus of WT animals, vs PBS hemisphere): pCREB staining was increased
- PKA staining ([3]; 10 ng into hippocampus, injected hemisphere): widespread and dramatic increase in PKA staining
